The text below walks through data of EPA's ToxValDB 9.5 (doi:10.2903/j.efsa.2014.3237).

One data set relates to Mus musculus. Conditions: chronic; duration: 18 months; histopathology: neoplastic.
A further data set has as its system Apis mellifera. The conditions noted are these: acute; duration: 48 hours; oral; unspecified; mortality.
The subject of the next data set is Cyprinus carpio. The conditions noted are these: acute; duration: 96 hours; mortality.
Another data set concerns Pimephales promelas. Conditions: chronic/long-term; duration: 28 days; growth.
For another data set, the system named is Oryctolagus sp. The conditions noted are these: reproduction developmental; body weight.
In another data set the test system is Daphnia magna. The conditions noted are these: chronic/long-term; duration: 21 days; reproduction.
A further data set relates to Tagia sp. The conditions noted are these: mortality.
Another data set concerns Colinus virginianus. The conditions noted are these: for LD50: acute, oral.
The next data set concerns Bibionidae. Conditions: chronic/long-term; duration: 28 days; development.
Another data set has as its system Typhlodromus pyri. Description: LR50; higher = less toxic. Conditions: acute; duration: 7 days; mortality.
In another data set the test system is Aphidius rhopalosiphi. Description: LR50; higher = less toxic. The conditions noted are these: acute; duration: 48 hours; mortality.

Values after ≈ are worked out from the molar mass of the structure shown.

One may read the NOAEL as the highest tested level that showed no adverse finding. Regarding `Cc1c(Br)c2ccc(F)cc2n1S(=O)(=O)c1ncn(S(=O)(=O)N(C)C)n1` [Amisulbrom], the NOAEL with Mus musculus was found to be 11.6 mg/kg-day; in the data set on Oryctolagus sp., 30 mg/kg-day; in the data set on Rattus norvegicus (chronic, duration: 2 years, histopathology: neoplastic), 11.1 mg/kg-day; with Rattus norvegicus (reproduction developmental, reproduction), 48.5 mg/kg-day. Also, the LD50 in the data set with Apis mellifera was more than 100 µg/piece; with Colinus virginianus, more than 2000 mg/kg-day; in the data set with Colinus virginianus (diet), more than 1080 mg/kg-day; in the data set with Rattus norvegicus (acute, oral), more than 5000 mg/kg-day. Further, the LC50 in the data set with Cyprinus carpio is 0.0229 µg/mL (≈ 0.0491 µM); with Tagia sp. (acute, duration: 14 days) it was more than 1000 mg/kg. For the same molecule, the NOEC was determined as 0.037 mg/L in the data set with Pimephales promelas; 0.0197 mg/L in the data set on Daphnia magna; 93.7 mg/kg in the data set with Tagia sp. (chronic/long-term, duration: 28 days); 34.2 mg/kg-day in the data set with Colinus virginianus (reproduction developmental); 0.111 mg/L in the data set on Bibionidae. Further, the LR50 with Typhlodromus pyri and in the data set with Aphidius rhopalosiphi was more than 1000 g/ha in each case.
